Measured values published in PubChem BioAssay AID330 (DTP/NCI, 2004).
Inconclusive results and toxic doses are left out.

Test system: P388 leukemia ip, CD2F1 mice, survival T/C
Experiment: NCI In Vivo Anticancer Drug Screen. Data for tumor model P388 Leukemia (intraperitoneal) in CD2F1 (CDF1) mice
Settings: endpoint: median survival time, higher = longer survival
In short: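 Mice carrying the transplanted tumor received test compound or vehicle. Survival was recorded in each group, and the value is the treated-group measurement divided by that of the vehicle-treated control group.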

Question: `O=CNCNC=O` was tested. Which T/C (dose: 50.0 mg/kg/injection, schedule: Q01DX009 (ip), vehicle: saline) did it give?
Answer: 95 % of control

Question: What about the T/C (dose: 100.0 mg/kg/injection, schedule: Q01DX009 (ip), vehicle: saline) of the same molecule?
Answer: 90 % of control

Question: And the T/C (dose: 200.0 mg/kg/injection, schedule: Q01DX009 (ip), vehicle: saline)?
Answer: 99 % of control

Question: What does the source list for `O=C1N/C(=N\O)C(F)C(NO)N1` (centres undefined)?
Answer: T/C (dose: 11.25 mg/kg/injection, schedule: Q04DX002 (ip), vehicle: distilled water + Tween-80): 94 % of control; T/C (dose: 22.5 mg/kg/injection, schedule: Q04DX002 (ip), vehicle: distilled water + Tween-80): 103 % of control; T/C (dose: 45.0 mg/kg/injection, schedule: Q04DX002 (ip), vehicle: distilled water + Tween-80): 99 % of control; T/C (dose: 90.0 mg/kg/injection, schedule: Q04DX002 (ip), vehicle: distilled water + Tween-80): 103 % of control; T/C (dose: 180.0 mg/kg/injection, schedule: Q04DX002 (ip), vehicle: distilled water + Tween-80): 93 % of control; T/C (dose: 360.0 mg/kg/injection, schedule: Q04DX002 (ip), vehicle: distilled water + Tween-80): 93 % of control

Question: How did the T/C (dose: 100.0 mg/kg/injection, schedule: Q04DX002 (ip), vehicle: saline with Tween-80) turn out when `Cc1cc2c(c(=O)o1)C1=S(SC(c3ccccc3)=C1)S2` (centres undefined) was run?
Answer: 90 % of control

Question: And the T/C (dose: 200.0 mg/kg/injection, schedule: Q04DX002 (ip), vehicle: saline with Tween-80)?
Answer: 99 % of control

Question: What about the T/C (dose: 400.0 mg/kg/injection, schedule: Q04DX002 (ip), vehicle: saline with Tween-80) of the same molecule?
Answer: 105 % of control

Question: Which T/C (dose: 12.5 mg/kg/injection, schedule: Q01DX005 (ip), vehicle: Klucel (hydroxypropylcellulose) (HPC)) does the source give for `CC1S(=O)(=O)OCCCOS1(=O)=O` here?
Answer: 119 % of control

Question: And the T/C (dose: 25.0 mg/kg/injection, schedule: Q01DX005 (ip), vehicle: Klucel (hydroxypropylcellulose) (HPC))?
Answer: 154 % of control
